Experimental data from patent publication US20250129135A1, “Multi-Agonist and Use Thereof” (priority 2021, published 2025).
Starred links: 1 amine or outer side, 2 acyl side, 3 side chain; linkers in the order of their positions; H or OH if unused. Non-standard residues stand in square brackets, D forms with d. Residues, ends and D or L forms follow the SMILES beside them. Groups on a side chain read outwards from the residue. No end group written: not given here. *: point of attachment. C20 diacid = O=C(O)CCCCCCCCCCCCCCCCCCC(=O)*; αMePhe(2-F) = C[C@](N)(Cc1ccccc1F)C(=O)O; γGlu = O=C(O)[C@H](CCC(=O)[*:2])N[*:1]; αMeL = CC(C)C[C@](C)(N)C(=O)O; AEEA = NCCOCCOCC(=O)O; Ac3c = NC1(C(=O)O)CC1; Aib = CC(C)(N)C(=O)O

T1: Human GIP R (Homo sapiens, UniProt P48546)
T1 construct: expressed in transfected cells; host or cells: CHO
T1 sequence (P48546 22-466): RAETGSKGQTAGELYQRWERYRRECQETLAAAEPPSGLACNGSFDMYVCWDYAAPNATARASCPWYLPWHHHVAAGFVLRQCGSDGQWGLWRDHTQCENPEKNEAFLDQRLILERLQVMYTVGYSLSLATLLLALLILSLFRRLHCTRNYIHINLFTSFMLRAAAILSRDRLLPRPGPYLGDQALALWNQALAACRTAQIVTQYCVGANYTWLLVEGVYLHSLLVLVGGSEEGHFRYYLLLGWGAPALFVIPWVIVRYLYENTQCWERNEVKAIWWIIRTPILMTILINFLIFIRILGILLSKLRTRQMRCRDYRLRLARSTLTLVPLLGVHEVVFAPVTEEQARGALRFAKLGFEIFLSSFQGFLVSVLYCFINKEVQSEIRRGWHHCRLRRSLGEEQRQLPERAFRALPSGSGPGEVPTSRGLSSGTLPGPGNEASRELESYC

T2: human GIP receptor (human) (UniProt P48546)
T2 sequence (looked up): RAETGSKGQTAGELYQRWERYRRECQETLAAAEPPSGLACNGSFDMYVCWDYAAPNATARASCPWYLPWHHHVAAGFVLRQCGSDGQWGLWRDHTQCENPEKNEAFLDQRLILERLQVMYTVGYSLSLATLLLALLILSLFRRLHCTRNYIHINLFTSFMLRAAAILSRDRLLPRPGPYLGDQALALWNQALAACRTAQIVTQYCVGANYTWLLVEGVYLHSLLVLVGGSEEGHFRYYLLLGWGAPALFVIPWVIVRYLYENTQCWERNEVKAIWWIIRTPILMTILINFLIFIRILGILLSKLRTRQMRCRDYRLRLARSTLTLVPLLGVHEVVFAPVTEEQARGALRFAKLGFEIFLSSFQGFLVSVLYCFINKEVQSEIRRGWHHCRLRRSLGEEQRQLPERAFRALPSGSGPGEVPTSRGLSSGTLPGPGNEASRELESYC

B1: Tirzepatide (peptide)
peptide: Y[Aib]QGTFTSDYSI[Aib]LDKIAQK([AEEA-AEEA-γGlu-C20 diacid])AFVQWLIAGGPSSGAPPPS-NH2
modifications: N-terminus assumed
SMILES: CC[C@H](C)[C@H](NC(=O)[C@H](CC(C)C)NC(=O)[C@H](Cc1c[nH]c2ccccc12)NC(=O)[C@H](CCC(N)=O)NC(=O)[C@@H](NC(=O)[C@H](Cc1ccccc1)NC(=O)[C@H](C)NC(=O)[C@H](CCCCNC(=O)COCCOCCNC(=O)COCCOCCNC(=O)CC[C@H](NC(=O)CCCCCCCCCCCCCCCCCCC(=O)O)C(=O)O)NC(=O)[C@H](CCC(N)=O)NC(=O)[C@H](C)NC(=O)[C@@H](NC(=O)[C@H](CCCCN)NC(=O)[C@H](CC(=O)O)NC(=O)[C@H](CC(C)C)NC(=O)C(C)(C)NC(=O)[C@@H](NC(=O)[C@H](CO)NC(=O)[C@H](Cc1ccc(O)cc1)NC(=O)[C@H](CC(=O)O)NC(=O)[C@H](CO)NC(=O)[C@@H](NC(=O)[C@H](Cc1ccccc1)NC(=O)[C@@H](NC(=O)CNC(=O)[C@H](CCC(N)=O)NC(=O)C(C)(C)NC(=O)[C@@H](N)Cc1ccc(O)cc1)[C@@H](C)O)[C@@H](C)O)[C@@H](C)CC)[C@@H](C)CC)C(C)C)C(=O)N[C@@H](C)C(=O)NCC(=O)NCC(=O)N1CCC[C@H]1C(=O)N[C@@H](CO)C(=O)N[C@@H](CO)C(=O)NCC(=O)N[C@@H](C)C(=O)N1CCC[C@H]1C(=O)N1CCC[C@H]1C(=O)N1CCC[C@H]1C(=O)N[C@@H](CO)C(N)=O

Legend:
[1] = biological target: T1, Human GIP R; assay: cAMP (HTRF) activity in CHO cells stably overexpressing GIP receptor; assay type: cell-based; settings: EC50 of human GIP / EC50 of compound
In short: (§1)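 Cells in HBSS are exposed to compound for 60 min at room temperature, followed by 60 min with detection reagent. EC50 (nM) is taken from concentration-response curves.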

[2] = tested on: C57 BL/6J DIO mice; assay: In vivo pharmacodynamics in high-fat diet induced obesity (DIO) mice; set-up: species or system mouse; settings: Table 9-2; 3 nmol/kg; Day 15; Mean±SEM
Text: High-fat diet induced obesity (DIO) mice have characteristics such as obesity, elevated blood sugar, insulin resistance, and lipid abnormalities, all of which are very significant metabolic syndromes similar to a human body. The effects of the compounds of the present application on body weight, food intake, blood sugar, and lipids in C57 BL/6J DIO mice were studied.
Obesity was induced in mice by feeding with a high-fat diet (60 kcal % of calories from fat). […] After grouping, one animal was raised in each cage for one week, during which each of the animals was injected subcutaneously (S.C.) with a solvent (1×PBS, 5 ml/kg) to pre-adapt the experimental operation process.
After the preparation of animals, vehicle control or compounds were administered to groups of animals by subcutaneous injection, in which the compounds were dissolved in 1×PBS, the dosage was 5 ml/kg, and the administration operation was started at 9:00 am and conducted once every three days (Q3D) for 15 days. Throughout the entire experimental study, animal weight and food intake were measured daily before administration, and compared with initial weight and food intake of the same animal before administration to calculate a percentage change in animal weight (%) and cumulative food intake, so as to evaluate the impact of compounds on changes in body weight and food intake.
At the end point of the experiment (Day 15), the body weight of the mice was measured, and then fasting blood glucose was measured by taking blood from the tail tip of broken tail without anesthesia. After the blood collection, the animals were anesthetized with CO2 and euthanized. Then, blood was taken from the heart and plasma was separated by centrifugation. The plasma was used to measure total cholesterol (TC), low-density lipoprotein cholesterol (LDL-C), triglycerides (TG), and blood insulin content. The liver was separated for homogenization, and then centrifuged to obtain the supernatant for determining triglyceride content in the liver.
All results were expressed in Mean±SEM, and the results were analyzed by one-way ANOVA using GraphPad Prism 5 software, followed by Dunnett's post hoc test compared to the Vehicle control group. The difference at the p<0.05 level was considered statistically significant.

[3] = tested on: 3T3-L1 adipocytes
In short: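 Mouse 3T3-L1 preadipocytes were differentiated with IBMX, dexamethasone and insulin for 5 days, then insulin plus 10 uM rosiglitazone for 3 days, then 10% FBS medium for 2–3 days. Mature adipocytes received 10-point, 3-fold compound dilutions for 60 min at room temperature. cAMP was read by kit detection reagent after a further 60 min, with concentration-effect curves fitted.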

[4] = biological target: Human GLP-1R (Homo sapiens, UniProt P43220); assay: cAMP (HTRF) activity in HEK-293 cells stably overexpressing human GLP-1 receptor; assay type: cell-based; set-up: expressed in transfected cells; host or cells: HEK-293
In short: as §1

[5] = biological target: T3, Human GCG R (Homo sapiens, UniProt P47871); assay: cAMP (HTRF) activity in HEK-293 cells stably overexpressing human GCG receptor; assay type: cell-based; settings: EC50 of human GCG / EC50 of compound
T3 construct: expressed in transfected cells; host or cells: HEK-293
In short: as §1

[6] = tested on: human primary liver cells; assay type: cell-based
In short: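 Human primary hepatocytes, thawed at 37° C and resuspended in HBSS, exposed to compound for 60 min at room temperature. Detection reagent then added for 60 min before cAMP readout.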

[7] = tested on: RIN-m5F cells; assay type: cell-based, rat
In short: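 cAMP production measured in RIN-m5F cells resuspended in HBSS; compounds incubated 60 min at room temperature, then detection reagent added for a further 60 min before read-out.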

[8] = biological target: T2, human GIP receptor (human); assay: cell-based or functional assay

Sequence of Human GLP-1R (P43220 24-463): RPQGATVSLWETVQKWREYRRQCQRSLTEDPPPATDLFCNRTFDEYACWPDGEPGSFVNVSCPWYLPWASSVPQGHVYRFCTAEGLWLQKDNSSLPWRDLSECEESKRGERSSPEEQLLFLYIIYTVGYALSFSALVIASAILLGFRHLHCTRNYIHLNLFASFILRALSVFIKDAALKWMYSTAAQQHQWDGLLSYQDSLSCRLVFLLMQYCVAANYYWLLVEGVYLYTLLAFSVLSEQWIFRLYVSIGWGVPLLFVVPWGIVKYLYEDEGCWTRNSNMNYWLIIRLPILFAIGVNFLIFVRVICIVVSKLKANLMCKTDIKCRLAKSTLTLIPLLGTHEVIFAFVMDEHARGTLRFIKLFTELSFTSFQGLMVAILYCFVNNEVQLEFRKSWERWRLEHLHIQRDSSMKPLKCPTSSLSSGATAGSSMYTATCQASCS
T3 sequence (P47871 26-477): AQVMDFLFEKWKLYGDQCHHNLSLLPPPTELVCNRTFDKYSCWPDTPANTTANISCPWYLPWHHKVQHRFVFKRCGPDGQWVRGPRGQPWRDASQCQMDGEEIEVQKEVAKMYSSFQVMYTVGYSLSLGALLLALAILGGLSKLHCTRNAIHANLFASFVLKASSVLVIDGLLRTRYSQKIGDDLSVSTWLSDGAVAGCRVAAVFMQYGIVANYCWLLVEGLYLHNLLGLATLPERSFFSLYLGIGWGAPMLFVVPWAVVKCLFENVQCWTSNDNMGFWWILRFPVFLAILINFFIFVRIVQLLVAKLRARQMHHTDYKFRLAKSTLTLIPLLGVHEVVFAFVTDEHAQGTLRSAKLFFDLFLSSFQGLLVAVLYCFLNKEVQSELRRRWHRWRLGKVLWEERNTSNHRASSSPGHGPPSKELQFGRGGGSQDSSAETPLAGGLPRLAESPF

Molecule | Human GIP R Rel. A (Relative Activity) [1] | Liver TG [2] | EC50 [3] | Rel. A (Relative Activity) on 3T3-L1 adipocyte ([3]; relative to GIP) | Human GLP-1R Rel. A (Relative Activity) ([4]; EC50 of human GLP-1 (7-37) / EC50 of compound) | EC50 ([4]; stable transfected cell cAMP activity, at least 3 independent tests) | Human GCG R Rel. A (Relative Activity) [5] | EC50 [6] | Rel. A (Relative Activity) on human primary liver cells ([6]; relative to GCG) | EC50 [7] | Rel. A (Relative Activity) on RIN-m5F ([7]; relative to GLP-1(7-37)) | cAMP EC50, CHO cells stably overexpressing human GIP R [8] | cAMP Rel. A (%) against human GIP, human GIP R cells [8]
CC[C@H](C)[C@H](NC(=O)[C@H](Cc1ccccc1)NC(=O)[C@H](C)NC(=O)C(C)(C)NC(=O)[C@H](CCC(N)=O)NC(=O)[C@H](C)NC(=O)[C@H](CCCCNC(=O)COCCOCCNC(=O)COCCOCCNC(=O)CC[C@H](NC(=O)CCCCCCCCCCCCCCCCCCC(=O)O)C(=O)O)NC(=O)[C@H](CCCCN)NC(=O)[C@H](CC(=O)O)NC(=O)[C@H](CC(C)C)NC(=O)[C@](C)(CC(C)C)NC(=O)[C@@H](NC(=O)[C@H](CO)NC(=O)[C@H](Cc1ccc(O)cc1)NC(=O)[C@H](CC(=O)O)NC(=O)[C@H](CO)NC(=O)[C@@H](NC(=O)[C@](C)(Cc1ccccc1F)NC(=O)[C@@H](NC(=O)CNC(=O)[C@H](CCC(N)=O)NC(=O)C(C)(C)NC(=O)[C@@H](N)Cc1ccc(O)cc1)[C@@H](C)O)[C@@H](C)O)[C@@H](C)CC)C(=O)N[C@@H](CCC(=O)O)C(=O)N[C@@H](Cc1ccccc1)C(=O)N[C@@H](CC(C)C)C(=O)N[C@@H](CC(C)C)C(=O)N[C@@H](CCC(=O)O)C(=O)N[C@@H](CO)C(=O)N[C@@H](Cc1c[nH]cn1)C(=O)N1CCC[C@H]1C(=O)N[C@@H](CO)C(=O)N[C@@H](CO)C(=O)NC(C)(C)C(=O)N[C@@H](Cc1c[nH]cn1)C(=O)N1CCC[C@H]1C(=O)N1CCC[C@H]1C(=O)NC1(C(=O)N[C@@H](CO)C(N)=O)CC1 [Compound 40] (H-Y[Aib]QGT[αMePhe(2-F)]TSDYSI[αMeL]LDKK([AEEA-AEEA-γGlu-C20 diacid])AQ[Aib]AFIEFLLESHPSS[Aib]HPP[Ac3c]S-NH2) | 150.83% | 42.1 ± 5.22 mg | 2.56 nM | 148.46% | 275.00% | 0.016 nM | 34.13% | 1.07 nM | 364.33% | 0.16 nM | 645.00% |  | 
B1 |  |  |  |  |  |  |  |  |  |  |  | 0.21 nM | 86.2%
